In brackets after ≈: the same amount, converted by molar mass. Where two headings read alike, the source gives them in different places.

What all share (assay type): physicochemical
Data set [1] can be described thus: Thermodynamic equilibrium solubility in anisole. As for the experimental part:
(§1) Anisole was selected as solvent based on good stability and measurable solubility of bimatoprost acid polymorphs in the studied temperature range. […] Another solvent, nitromethane, was selected to detect the solubility of bimatoprost acid at 9 and 22° C. […] At 22° C., both forms converted to oils where no comparison between the two polymorphs could be made.

A short description of data set [2]: Vapor sorption analysis (VSA). The note with it: for relative humidity at which the monohydrate (hydrated form) forms: first adsorption. As for the experimental part:
The crystalline monohydrate form (designated polymorph III) was discovered upon vapor sorption analysis (VSA) of both polymorph I and polymorph II. […] The conversion of polymorph I to the monohydrate form was confirmed by XRPD. […] The 2nd adsorption cycle of polymorph II reconfirms formation of the monohydrate again at RH˜75% (FIG. 7). […] The thermal analysis (MDSC) of the monohydrate form indicates a melting endotherm onset (Tonset) at 53.9° C. and a fusion enthalpy (ΔHf) of 72.4 J/g for the monohydrate form (see FIG. 8).

Data set [3] in a line: Solubility in nitromethane. How it is done: as §1
The nature of data set [4]: Isothermal competitive co-slurries of polymorph I and II. To be noted: 1:1 ratio co-slurry at 5, 20 and 35° C. How it is done: The differences in free energy between the polymorphs were measured as a function of temperature in order to determine the transition temperature and relative stability versus temperature.

Regarding `O=C(O)CCCC=CCC1C(O)CC(O)C1C=CC(O)CCc1ccccc1` (centres unmarked) [bimatoprost acid, 7-[3,5-Dihydroxy-2-(3-hydroxy-5-phenyl-pent-1-enyl)-cyclopentyl]-hept-5-enoic acid], the “physical state in solubility study” value in data set [1] (temperatures above 40° C.) is “transforms to an oil”.
Take `O=C(O)CCCC=CCC1C(O)CC(O)C1C=CC(O)CCc1ccccc1` (centres unmarked) [polymorph II, 7-[3,5-Dihydroxy-2-(3-hydroxy-5-phenyl-pent-1-enyl)-cyclopentyl]-hept-5-enoic acid]: in data set [2] (2nd adsorption cycle), the “relative humidity at which the monohydrate forms” value is recorded as approximately 75%. Moreover, in data set [2] (25° C.), the “relative humidity at which the monohydrate (hydrated form) forms” value was “above 85 % RH”. Moreover, the “thermodynamic equilibrium solubility (comparison of polymorphs)” value in data set [1] (6° C. and 25° C.) is reported as “lower solubility”. This molecule also displayed a solubility in data set [3] (9° C.) of 3.3 ± 0.2 mg/mL (≈ 8.49 mM). The “polymorph conversion / relative stability” value in data set [4] was “more stable form over the temperature range of 5-35 °C”.
Turning to `O=C(O)CCCC=CCC1C(O)CC(O)C1C=CC(O)CCc1ccccc1` (centres unmarked) [polymorph I, 7-[3,5-Dihydroxy-2-(3-hydroxy-5-phenyl-pent-1-enyl)-cyclopentyl]-hept-5-enoic acid], the “relative humidity at which the monohydrate (hydrated form) forms” value in data set [2] (25° C.) was approximately 75 % RH. In data set [2] (RH~75%, 25° C.), this molecule registered a water absorbed of 4.42 w/w %. Besides, the solubility in data set [3] (9 °C, organic solvent or mixture, thermodynamic from solid, read-out: solubility) worked out at 4.1 ± 0.3 mg/mL (≈ 10.6 mM). The “polymorph conversion / relative stability” value in data set [4] is on record as “converts to polymorph II at all three temperatures”.
Take `O=C(O)CCCC=CCC1C(O)CC(O)C1C=CC(O)CCc1ccccc1` (centres unmarked) [polymorph III, 7-[3,5-Dihydroxy-2-(3-hydroxy-5-phenyl-pent-1-enyl)-cyclopentyl]-hept-5-enoic acid]: the conversion upon drying result in data set [2] (drying in vapor sorption analyzer at 25° C.) is “converted beck to the initial polymorph 1”.

A word on the solubility: it is the concentration that dissolves in the medium under given conditions.

These data come from patent US9855232B2, “Crystalline forms of bimatoprost acid, methods for preparation, and methods for use thereof” (Allergan, Inc., priority 2012, dated 2018).
